These compounds were tested against T1, purified human HDAC6 (Homo sapiens, UniProt Q9UBN7) (assay: HDAC6 Enzyme Assay). Conditions: enzyme inhibition, substrate Ac-Arg-Gly-Lys(Ac)-AMC, 1 hour at 30° C.
T1 construct: purchased BPS Bioscience 5006
T1 sequence (Q9UBN7 1-1215): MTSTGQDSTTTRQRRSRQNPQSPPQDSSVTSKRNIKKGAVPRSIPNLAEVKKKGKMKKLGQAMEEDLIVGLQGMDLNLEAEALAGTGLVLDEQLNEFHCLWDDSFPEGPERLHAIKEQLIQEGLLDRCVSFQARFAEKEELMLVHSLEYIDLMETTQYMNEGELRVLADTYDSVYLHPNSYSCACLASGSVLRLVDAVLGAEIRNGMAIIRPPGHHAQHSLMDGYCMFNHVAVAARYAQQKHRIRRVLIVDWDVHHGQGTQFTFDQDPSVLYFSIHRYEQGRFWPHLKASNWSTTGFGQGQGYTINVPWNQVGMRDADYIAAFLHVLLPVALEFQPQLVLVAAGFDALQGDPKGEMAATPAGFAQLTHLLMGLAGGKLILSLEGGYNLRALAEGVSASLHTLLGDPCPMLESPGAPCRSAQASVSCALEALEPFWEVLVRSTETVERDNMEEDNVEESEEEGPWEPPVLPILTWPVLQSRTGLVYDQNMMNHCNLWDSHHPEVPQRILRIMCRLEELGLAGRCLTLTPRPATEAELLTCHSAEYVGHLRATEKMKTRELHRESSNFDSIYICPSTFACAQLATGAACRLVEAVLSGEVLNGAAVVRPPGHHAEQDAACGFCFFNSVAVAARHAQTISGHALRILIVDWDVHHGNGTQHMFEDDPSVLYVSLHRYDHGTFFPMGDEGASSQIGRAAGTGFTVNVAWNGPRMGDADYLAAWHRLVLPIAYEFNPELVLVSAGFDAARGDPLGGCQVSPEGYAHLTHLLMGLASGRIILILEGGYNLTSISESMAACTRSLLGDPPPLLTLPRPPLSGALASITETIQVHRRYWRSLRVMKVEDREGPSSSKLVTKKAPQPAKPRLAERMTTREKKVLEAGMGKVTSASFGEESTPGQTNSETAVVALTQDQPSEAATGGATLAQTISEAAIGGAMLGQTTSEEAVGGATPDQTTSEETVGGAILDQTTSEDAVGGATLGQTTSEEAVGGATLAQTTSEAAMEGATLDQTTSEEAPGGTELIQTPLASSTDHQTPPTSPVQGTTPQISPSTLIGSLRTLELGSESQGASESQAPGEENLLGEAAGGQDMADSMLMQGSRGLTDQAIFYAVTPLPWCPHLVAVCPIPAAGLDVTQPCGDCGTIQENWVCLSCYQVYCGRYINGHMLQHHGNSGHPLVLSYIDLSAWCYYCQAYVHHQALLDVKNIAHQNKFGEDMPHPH
Format: biochemical
How it was run: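 Purified human HDAC6 incubated 1 h at 30 °C with Ac-Arg-Gly-Lys(Ac)-AMC peptide and compound; reaction stopped with trichostatin A, then trypsin releases AMC, read by fluorescence (Ex 340/Em 460 nm). IC50 from concentration-response curves relative to DMSO controls.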

SMILES | IC50
CC1(C(=O)N2Cc3cc(C(=O)NO)sc3C(C)(C)C2)CCCCC1 [Compound 224, N-hydroxy-7,7-dimethyl-5-[(1-methylcyclohexyl)carbonyl]-4,5,6,7-tetrahydrothieno[3,2-c]pyridine-2-carboxamide] | > 1000 nM
O=C(NO)c1cc2c(s1)CN(C(=O)C13CC4CC(CC(C4)C1)C3)C2 [Compound 230, 5-(1-adamantylcarbonyl)-N-hydroxy-5,6-dihydro-4H-thieno[2,3-c]pyrrole-2-carboxamide] | 50 to 100 nM
CC1(C)CN(C(=O)c2ccccc2Cl)Cc2cc(C(=O)NO)sc21 [Compound 234, 5-(2-chlorobenzoyl)-N-hydroxy-7,7-dimethyl-4,5,6,7-tetrahydrothieno[3,2-c]pyridine-2-carboxamide] | > 1000 nM

The remaining lines, values ahead:

IC50 | SMILES
50 to 100 nM | Cc1c(C(=O)NO)sc2c1CN(C(=O)c1ccc(C(C)(C)C)cc1)CC2 [Compound 225, 5-(4-tert-butylbenzoyl)-N-hydroxy-3-methyl-4,5,6,7-tetrahydrothieno[3,2-c]pyridine-2-carboxamide]
< 50 nM | O=C(NO)c1cc2c(s1)CN(C(=O)c1cc3ccccc3s1)C2 [Compound 231, 5-(1-benzothien-2-ylcarbonyl)-N-hydroxy-5,6-dihydro-4H-thieno[2,3-c]pyrrole-2-carboxamide]
< 50 nM | Cc1c(C(=O)NO)sc2c1CN(C(=O)c1ccc(-c3ccccc3)cc1)CC2 [Compound 233, 5-(biphenyl-4-ylcarbonyl)-N-hydroxy-3-methyl-4,5,6,7-tetrahydrothieno[3,2-c]pyridine-2-carboxamide]
